Reference: ChEMBL document CHEMBL4808242, “Discovery of GNE-502 as an orally bioavailable and potent degrader for estrogen receptor positive breast cancer” (Bioorg Med Chem Lett, 2021)
≈ marks a conversion by molar mass, not a printed value. Calls of active or inactive are those of the source. No cut-off for these calls is given here.

Assays:
[1] = Volume of distribution at steady state in rat; format: ADME; conditions: in vivo, read-out: Vdss
[2] = Apparent permeability across basolateral to apical side in MDCK cells; format: ADME, cell-based, Canis lupus familiaris; conditions: dog
[3] = Clearance in rat at 1 mg/kg, iv; format: ADME, organism-based; conditions: in vivo
[4] = in vitro; conditions: dog, MDCK
[5] = Kinetic solubility of compound at pH 7.4; format: physicochemical; conditions: buffer, read-out: Kinetic_solubility
[6] = tested on: Estrogen receptor (Homo sapiens), P03372 [Y537S]; experiment: Induction of ERalpha Y537S mutant degradation expressed in human MCF7 cells assessed as maximum degradation by immunofluorescence assay relative to control; format: cell-based
Chain of Estrogen receptor (Homo sapiens), P03372 [Y537S] (P03372 whole entry Y537S): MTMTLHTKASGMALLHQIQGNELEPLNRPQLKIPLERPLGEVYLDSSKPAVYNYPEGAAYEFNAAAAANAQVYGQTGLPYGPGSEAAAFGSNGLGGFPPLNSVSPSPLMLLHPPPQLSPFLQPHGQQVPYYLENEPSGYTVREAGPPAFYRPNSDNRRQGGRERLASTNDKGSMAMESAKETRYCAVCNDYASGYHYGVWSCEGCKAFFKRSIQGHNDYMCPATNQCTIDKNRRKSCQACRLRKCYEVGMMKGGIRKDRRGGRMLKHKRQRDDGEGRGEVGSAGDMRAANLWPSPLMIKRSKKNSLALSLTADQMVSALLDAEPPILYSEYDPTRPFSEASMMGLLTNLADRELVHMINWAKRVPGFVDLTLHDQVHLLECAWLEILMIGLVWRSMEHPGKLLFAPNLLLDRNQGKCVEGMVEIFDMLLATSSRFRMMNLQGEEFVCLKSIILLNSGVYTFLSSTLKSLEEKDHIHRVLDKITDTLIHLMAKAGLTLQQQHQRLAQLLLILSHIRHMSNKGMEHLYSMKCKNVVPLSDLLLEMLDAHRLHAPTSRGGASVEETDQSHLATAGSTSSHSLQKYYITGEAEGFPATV

[7] = tested on: MCF7; experiment: Antiproliferation activity against human MCF7 cells assessed as reduction in cell viability measured by CellTiter-Glo luminescent assay; format: functional, cell-based
[8] = molecular target: T1, Estrogen receptor (Homo sapiens) (UniProt P03372); experiment: Induction of ERalpha degradation in human MCF7 cells assessed as maximum degradation by immunofluorescence assay relative to control; format: cell-based
T1 sequence (whole entry): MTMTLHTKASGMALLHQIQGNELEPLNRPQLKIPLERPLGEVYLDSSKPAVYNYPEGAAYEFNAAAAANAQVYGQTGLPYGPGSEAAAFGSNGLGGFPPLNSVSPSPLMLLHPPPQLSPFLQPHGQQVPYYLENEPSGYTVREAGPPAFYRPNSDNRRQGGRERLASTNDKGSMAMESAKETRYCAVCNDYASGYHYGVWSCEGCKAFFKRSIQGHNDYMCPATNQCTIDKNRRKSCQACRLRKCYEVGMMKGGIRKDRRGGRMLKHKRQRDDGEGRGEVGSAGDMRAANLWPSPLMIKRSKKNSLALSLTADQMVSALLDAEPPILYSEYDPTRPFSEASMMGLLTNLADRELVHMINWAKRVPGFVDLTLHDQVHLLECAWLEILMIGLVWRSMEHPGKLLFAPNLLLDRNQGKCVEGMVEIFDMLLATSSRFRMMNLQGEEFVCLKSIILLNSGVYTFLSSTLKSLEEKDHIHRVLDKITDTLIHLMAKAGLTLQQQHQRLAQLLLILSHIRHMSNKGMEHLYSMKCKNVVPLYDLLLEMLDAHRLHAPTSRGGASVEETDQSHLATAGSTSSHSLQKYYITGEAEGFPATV

[9] = Half life in rat; format: ADME; conditions: in vivo
[10] = Distribution coefficient, logD of the compound at pH 7.4; conditions: octanol/water
[11] = Oral bioavailability in rat; format: ADME, organism-based; conditions: in vivo
[12] = Protein binding in human plasma assessed as unbound fraction; format: ADME, cell-free
[13] = molecular target: T2, Estrogen receptor (Homo sapiens, UniProt P03372); experiment: Induction of ERalpha degradation in human MCF7 cells by immunofluorescence assay; format: cell-based
T2 sequence (P03372 whole entry): T1 sequence (whole entry)

[14] = tested on: MCF7; experiment: Antitumor activity against human MCF7 cells xenografted in mouse assessed as tumor growth inhibition at 60 mg/kg, po QD for 4 weeks; format: functional, organism-based
[15] = tested on: MCF7; experiment: Antitumor activity against human MCF7 cells xenografted in mouse assessed as tumor growth inhibition at 100 mg/kg, po measured after 4 weeks; format: functional, organism-based
[16] = Toxicity in mouse xenografted with human MCF7 cells assessed as body weight loss at 1 to 100 mg/kg, po administered for 4 weeks; format: organism-based; conditions: in vivo, 672 h, dose 1-100 mg/kg
[17] = AUC in mouse at 100 mg/kg, po; format: ADME, organism-based; set-up: dose 100 mg/kg; conditions: in vivo
[18] = molecular target: Estrogen receptor (Homo sapiens, UniProt P03372, Y537S); experiment: Induction of ERalpha Y537S mutant degradation expressed in human MCF7 cells by immunofluorescence assay; format: cell-based
Chain of Estrogen receptor (Homo sapiens, UniProt P03372, Y537S) (P03372 whole entry Y537S): as the sequence (P03372 whole entry Y537S) above

[19] = AUC in mouse at 10 mg/kg, po; format: ADME, organism-based; set-up: dose 10 mg/kg; conditions: in vivo
[20] = molecular target: T2, Estrogen receptor; experiment: Displacement of fluorescein PGC1alpha from recombinant ERalpha (unknown origin)
[21] = tested on: MCF7; experiment: Antitumor activity against human MCF7 cells xenografted in po dosed mouse assessed as tumor growth inhibition measured after 4 weeks; format: functional, organism-based; conditions: dose 10-100 mg/kg

Row | Structure (SMILES) | solubility kinetic [5] [µM] | %max [8] [%] | logD [10] | DC50 [13] [nM] | further results
1 | C[C@@H]1Cc2c([nH]c3ccccc23)[C@@H](c2c(F)cc(OCCN3CC(CF)C3)cc2F)N1S(C)(=O)=O | 113 (≈ 57.4 µg/mL) | 93 | 2.3 | – | Vd [1]: 17.3 L/kg; Papp B→A [2]: 4 ×10⁻⁶ cm/s; clearance [3]: 27.5 mL/min/kg; Papp A→B [4]: 4 ×10⁻⁶ cm/s; %max [6]: 86%; IC50 [7]: 0.5 nM; half-life [9]: 7 h; bioavailability [11]: 47%
2 | CC(=O)N1[C@H](c2c(F)cc(OCCN3CC(CF)C3)cc2F)c2[nH]c3ccccc3c2C[C@H]1C | 53 (≈ 25 µg/mL) | 91 | 2.5 | – | –
3 | C[C@@H]1Cc2c([nH]c3ccccc23)[C@@H](c2c(F)cc(OC3CN(CCCF)C3)cc2F)N1CC(C)(C)F | < 1 | 100 | – | – | Papp B→A [2]: 0.2 ×10⁻⁶ cm/s; Papp A→B [4]: 0.4 ×10⁻⁶ cm/s; fraction unbound [12]: < 0.001
4 | C[C@@H]1Cc2c([nH]c3ccccc23)[C@@H](c2c(F)cc(OC3CN(CCCF)C3)cc2F)N1C(=O)C1(F)CC1 | 13 (≈ 6.7 µg/mL) | 95 | 4.1 | 0.32 | –
5 | C[C@H](CF)C(=O)N1[C@H](c2c(F)cc(OCCN3CC(CF)C3)cc2F)c2[nH]c3ccccc3c2C[C@H]1C | 102 (≈ 52.8 µg/mL) | 96 | 2.5 | 0.4 | –
6 | C[C@@H]1Cc2c([nH]c3ccccc23)[C@@H](c2c(F)cc(OCCN3CC(CF)C3)cc2F)N1C(=O)[C@@H](C)CF | 115 (≈ 59.5 µg/mL) | 98 | 2.5 | 0.34 | –
7 | CC/C(=C(\c1ccccc1)c1ccc(OCCN(C)C)cc1)c1ccccc1 | – | – | – | – | Activity [14]: Active
8 | C[C@@H]1Cc2c([nH]c3ccccc23)[C@@H](c2c(F)cc(OCCN3CC(CF)C3)cc2F)N1C(=O)C1COC1 | 117 (≈ 60.1 µg/mL) | 92 | 1.8 | 4 | –
9 | C[C@@H]1Cc2c([nH]c3ccccc23)[C@@H](c2c(F)cc(OC3CN(CCCF)C3)cc2F)N1C(=O)C(C)(C)F | < 1 | 100 | 4 | 0.42 | –
10 | CC(C)C(=O)N1[C@H](c2c(F)cc(OCCN3CC(CF)C3)cc2F)c2[nH]c3ccccc3c2C[C@H]1C | 135 (≈ 67.4 µg/mL) | 95 | – | 0.11 | –
11 | CC(CO)C(=O)N1[C@H](c2c(F)cc(OCCN3CC(CF)C3)cc2F)c2[nH]c3ccccc3c2C[C@H]1C (some centres undefined) | 156 (≈ 80.4 µg/mL) | 91 | 1.8 | 4 | –
12 | C[C@@H]1Cc2c([nH]c3ccccc23)[C@@H](c2ccc(OCCN3CC(CF)C3)cc2)N1S(C)(=O)=O | 118 (≈ 55.6 µg/mL) | 93 | 2.2 | 0.18 | Vd [1]: 7.7 L/kg; Papp B→A [2]: 6 ×10⁻⁶ cm/s; Activity [15]: Active; Activity [16]: Non-Toxic; AUC [17]: 28.9 µM·h; DC50 [18]: 1.2 nM; clearance [3]: 7 mL/min/kg; Papp A→B [4]: 5 ×10⁻⁶ cm/s; AUC [19]: 1.8 µM·h; %max [6]: 82%; IC50 [7]: 0.5 nM; IC50 [20]: 11 nM; Activity [21]: Dose-Dependent Effect; half-life [9]: 13 h; bioavailability [11]: 32%
13 | C[C@@H]1Cc2c([nH]c3ccccc23)[C@@H](c2c(F)cc(OCCN3CC(CF)C3)cc2F)N1C(=O)C1CNC1 | 96 (≈ 49.2 µg/mL) | – | -0.2 | > 10 | –
14 | C[C@@H]1Cc2c([nH]c3ccccc23)[C@@H](c2c(F)cc(OCCN3CC(CF)C3)cc2F)N1C(=O)C(C)(F)F | 30 (≈ 15.6 µg/mL) | 95 | – | 0.15 | –
15 | C[C@@H]1Cc2c([nH]c3ccccc23)[C@@H](c2c(F)cc(OCCN3CC(CF)C3)cc2F)N1C(=O)CC1CC1 | 111 (≈ 56.8 µg/mL) | 95 | 3.1 | 5 | –
16 | C[C@@H]1Cc2c([nH]c3ccccc23)[C@@H](c2c(F)cc(OCCN3CC(CF)C3)cc2F)N1C(=O)C1CC1 | 181 (≈ 90.1 µg/mL) | 89 | 2.1 | 3 | –
17 | C[C@@H]1Cc2c([nH]c3ccccc23)[C@@H](c2ccc(OCCN3CC(CF)C3)cc2F)N1S(C)(=O)=O | 135 (≈ 66.1 µg/mL) | 93 | 2.5 | 0.19 | Vd [1]: 9.6 L/kg; Papp B→A [2]: 5 ×10⁻⁶ cm/s; clearance [3]: 10.2 mL/min/kg; Papp A→B [4]: 4 ×10⁻⁶ cm/s; IC50 [7]: 0.4 nM; IC50 [20]: 17 nM; half-life [9]: 11 h; bioavailability [11]: 48%
18 | C[C@@H]1Cc2c([nH]c3ccccc23)[C@@H](c2c(F)cc(OC3CN(CCCF)C3)cc2F)N1C(=O)C1(F)CCC1 | < 1 | 96 | 4.3 | 1.2 | –
19 | C[C@@H]1Cc2c([nH]c3ccccc23)[C@@H](c2c(F)cc(OCCN3CC(CF)C3)cc2F)N1C(=O)C(C)(C)C | 92 (≈ 47.3 µg/mL) | 90 | 3.3 | 0.49 | –
20 | C[C@@H]1Cc2c([nH]c3ccccc23)[C@@H](c2c(F)cc(OCCN3CC(CF)C3)cc2F)N1C(=O)C(C)(C)F | 95 (≈ 49.2 µg/mL) | 94 | 3.2 | – | Vd [1]: 32 L/kg; Papp B→A [2]: 1 ×10⁻⁶ cm/s; clearance [3]: 120 mL/min/kg; Papp A→B [4]: 1 ×10⁻⁶ cm/s; half-life [9]: 3.1 h; bioavailability [11]: 33%
